Measurements taken from patent US8409570B2, “Method of inducing apoptosis using anti-DR5 antibodies” (Genentech, Inc., priority 2005, dated 2013).

Assays:
[1] = test system: HCT15 xenograft model of colorectal cancer; assay: HCT15 xenograft model; assay type: in vivo, mouse; conditions: Apomab 7.3 10 mg/kg, CPT-11 80 mg/kg, alone or combined; FIG. 26
[2] = test system: Colo 205 human colon carcinoma xenografts; assay: Colo 205 human colon carcinoma xenografts in nude mice, tumor growth delay (Example 8); assay type: in vivo, mouse; conditions: endpoint tumor volume 1000 mm^3; for tumor growth delay (TGD): Apo2L.0 60 mg/kg i.p. 5/2/5, Apomab 7.3 3 mg/kg i.v. Days 1, 8, B20-4.1 10 mg/kg i.p. Days 1 and 8; for tumor growth delay (TGD), percentage of control median TTE: same regimens
Procedure: Xenografts were initiated from cultured Colo 205 human colon carcinoma cells. […] On the day of tumor cell implant, Colo 205 cells were harvested and resuspended in 50% Matrigel matrix (BD Biosciences) in PBS at a concentration of 5×10^6 cells/mL.
The test materials were kept on ice during dosing, and dosing solutions were subsequently stored at 4° C.
Tumors were measured twice weekly using calipers. […] The time to endpoint (TTE) for each mouse was calculated from the following equation: […]
Where b is the intercept and m is the slope of the line obtained by linear regression of a log-transformed tumor growth data set. The data set was comprised of the first observation that exceeded the study endpoint volume and the three consecutive observations that immediately preceded the attainment of the endpoint volume. […] Animals suffering treatment-related death or non-treatment related death due to metastasis were assigned a TTE value equal to the day of death. Animals suffering non-treatment related death or death of unknown causes were excluded from the TTE calculations.
Treatment outcome was evaluated by tumor growth delay (TGD), which is defined as the increase in the median time to endpoint (TTE) in the treatment group compared to the control group: TGD=T−C,
Treatment may cause partial regression (PR) or complete regression (CR) of tumor in an animal In a PR response, the tumor volume is 50% or less of its Day 1 volume for three consecutive measurements during the course of the study, and equal to or greater than 13.5 mm^3 for one or more of these three measurements. In a CR response, the tumor volume is less than 13 5 mm^3 for one or more of these three measurements during the course of the study. An animal with a CR response at the termination of the study is additionally classified as a tumor-free survivor (TFS). Regression responses were monitored and recorded.
The Logrank test was use to analyze the significance of the differences between the TTE values of treated and control groups. Two-tailed statistical analyses were conducted at significance level P=0.05, with results deemed significant at 0.01 P 0.05, and highly significant at P<0.01.
Median tumor growth curves show group median tumor volumes as a function of time.

[3] = test system: human Colo 205 colon carcinoma xenograft; assay: Human Colo 205 carcinoma xenograft model, tumor growth delay (Example 10); conditions: for TGD: maximum possible 193%, all treatments i.p.; for MTV(n), median tumor volume on Day 61: n = mice remaining on Day 61
Procedure: The animals were fed ad libitum water and NIH 31 Modified and Irradiated Lab Diet® consisting of 18.0% crude protein, 5.0% crude fat, and 5.0% crude fiber. The mice were housed on irradiated ALPHA-Dri® Bed-O'Cobs® Laboratory Animal Bedding in static microisolators on a 12-hour light cycle at 21-22° C. and 40-60% humidity.
Human Colo 205 colon carcinoma cells were cultured in RPMI 1640 medium containing 100 units/mL penicillin G sodium, 100 μg/mL streptomycin sulfate, 0.25 μg/mL amphotericin B, and 25 μg/mL gentamicin. The medium was supplemented with 10% heat-inactivated fetal bovine serum, 2 mM glutamine, and 1 mM sodium bicarbonate. The tumor cells were cultured in tissue culture flasks in a humidified incubator at 37° C., in an atmosphere of 5% CO2 and 95% air.
The human Colo 205 carcinoma cells used for implantation were harvested during log phase growth and resuspended in 50% matrigel at 5×10^6 cells/mL. Each mouse was injected s.c. in the right flank with 1×10^6 cells (0.2 mL cell suspension). Tumors were monitored twice weekly and then daily as their volumes approached 100-300 mm^3 On Day 1 of the study, animals were sorted into treatment groups with tumor sizes of 108.0-220.5 mm^3 and a group mean tumor size of 149.8 mm^3 Tumor weight may be estimated with the assumption that 1 mg is equivalent to 1 mm^3 of tumor volume.
The test materials were provided ready for dosing. The dosing solutions were stored at 4° C.
Mice were sorted into six groups with ten mice per group. All treatments were administered intraperitoneally (i.p.).
Apo2L.0 and its vehicle were each administered once daily on Days 1-5 (qd×5). […] Control Group 1 mice were treated with the vehicle for Apo2L.0. […] In all groups, the dosing volume of 0.2 ml/20 g mouse was scaled to the body weight of each animal.

[4] = test system: SKMES-1 human NSCLC xenograft; assay: SKMES-1 human NSCLC xenograft, tumor growth delay (Example 9); conditions: for median TTE: 1500 mm^3 endpoint volume, 45-day study, control median TTE 18.9 days; for TGD, % of control / TGD: versus vehicle control; for TGD, % of control: maximum achievable 138%; for TGD: maximum achievable 26.1 days
From the text: Xenografts were initiated from SKMES-1 lung tumors maintained by serial transplantation at PRC. Each test mouse received a 1 mm^3 SKMES-1 tumor fragment implanted subcutaneously in the right flank, and tumor growth was monitored. Thirteen days later, designated as Day 1 of the study, individual tumor volumes ranged from 63 to 144 mm^3, and the animals were sorted into four groups each consisting of ten mice and two groups each consisting of nine mice. Mean tumor volumes were 93 to 95 mm^3.
All test materials were provided ready to dose at 0.1 mL per 20 g body weight (5 mL/kg), and were stored at −80° C. upon receipt. The test materials were thawed on the first day of dosing, kept on ice during dosing, then subsequently stored at 4° C. Carboplatin ([…] ® injection, Bristol Myers Squibb) was diluted with 5% dextrose in water (D5W) to yield the desired dose in a volume of 0.2 mL per 10 g body weight (10 mL/kg). Paclitaxel (Natural Pharmaceuticals, Inc.) was diluted with D5W on each day of dosing from a 10× stock solution to yield a vehicle consisting of 5% ethanol and 5% Cremophor EL in 90% D5W (5% EC vehicle), so that the desired dose was delivered in 0.1 mL per 20 g body weight.
Group 1 (vehicle control) mice received vehicle administered intraperitoneally once daily for five days (i.p. qd×5), and served as tumor growth controls. […] Each dose was administered in the volume indicated in the previous section, and was scaled to the body weight of the animal.

H2122 xenograft = H2122 xenograft model of human lung cancer; assay type: in vivo, mouse
Procedure: All mice were ear tagged for identification.
All mice were ear tagged for identification. […] Any mice excluded from the treatment groups were euthanized.
Group A was a vehicle-treated control group (0.5 M arginine succinate, 20 mM Tris, 0.02% Tween 20, pH 7.2). […] 48 hours following the first treatment, three mice from each of Groups B, C and D were euthanized, and their tumors were collected as follows. One tumor was preserved in 10% formalin for histology study. One tumor was frozen in liquid nitrogen for RNA studies. One tumor was frozen in liquid nitrogen for Western blot. Tumor measurements were taken 2×/week for the first 2 weeks then 1×/week for the next 4 weeks.

Colo 205 xenograft = Colo 205 xenograft model, Apomabs 23.3, 25.3 and 7.3 (Example 7); assay type: in vivo, mouse; conditions: single 3 or 10 mg/kg i.v. dose; 25-day data; FIG. 33
Procedure: All mice were ear tagged for identification. […] Group 4 was administered a single 3 mg/kg/mouse i.v. dose of Apomab 23.3. Group 5 was administered a single […] i.v. dose of Apomab 23.3. […] 24 hours post treatment all mice were weighed. Tumors were measured 2×/week for the first 2 weeks and then weekly for the next 4 weeks. After 6 weeks or when the tumors reached a size of >1000 mm^3, the mice were sacrificed.

BxPC3 xenograft = BxPC3 xenograft model of human pancreatic adenocarcinoma; assay type: in vivo, mouse; conditions: Apomab 7.3 10 mg/kg i.v., gemcitabine 160 mg/kg ip; FIG. 29
[5] = test system: Colo 205 human colon carcinoma xenograft; assay: Colo 205 xenograft athymic nude mouse model (Example 2); assay type: in vivo
Procedure: All mice were ear-tagged for identification. Once the tumor volume was approximately 100-200 mm^3, the Colo 205 tumor-bearing mice were randomly grouped and treatment was administered.
In some instances, 3 or 4 mice were euthanized from the vehicle and 10 mg/kg groups, and serum and tumors were collected at 5 minutes, 24 hours or 48 hours post treatment for serum drug concentration and tumor histology studies. In the remaining mice, tumor measurements were taken twice a week for the first 2 weeks, then once a week for another 4 weeks.

[6] = test system: Colo205 human colon carcinoma cell line; assay: Bioassay: tumor cell growth inhibition/killing (AlamarBlue); assay type: cell-based; conditions: Apomab framework variants; last column of Table 12
Procedure: Bioassay: tumor cell growth inhibition/killing. The apparent potency of each antibody variant was determined in an in vitro tumor cell-killing assay. Colo205 human colon carcinoma cell line was cultured in RPMI medium containing 10% fetal bovine serum. […] Cells (20,000/well) were then added to the plates. The plates were incubated at 37° C. for a total of 48 h. AlamarBlue was added to the wells for the last 3 h of incubation. Fluorescence was read using a fluorometer with excitation at 530 nm and emission of 590 nm. The data were analyzed using a four parameter curve-fitting program.

Row | Compound | anticancer activity [1] | tumor growth delay (TGD) [2] [days] | tumor growth delay (TGD), percentage of control median TTE [2] [%] | TGD [3] [%] | MTV(n), median tumor volume on Day 61 [3] | LTTFS (long-term tumor-free survivor) ([3]; ten mice per group) | median TTE [4] [days] | TGD, % of control [4] [%] | TGD [4] [days] | anticancer activity (Colo 205 xenograft) | Bioassay activity with crosslinking [6] | also measured
1 | CCc1c2c(nc3ccc(OC(=O)N4CCC(N5CCCCC5)CC4)cc13)-c1cc3c(c(=O)n1C2)COC(=O)[C@]3(O)CC [CPT-11, irinotecan, reference compound] | effective when administered alone | – | – | – | – | – | – | – | – | – | – | –
2 | Apo2L.0: soluble form of Apo-2 ligand (TRAIL), 114-281 extracellular domain sequence | – | 28.4 | 190 | 158 | 1,210 mm^3 | One | 22.9 | 21 | 4.0 | – | – | median TTE ([3]; 1500 mm^3 endpoint volume, 61-day study, control median TTE 20.8 days): 53.6 days; T-C ([3]; versus vehicle control): 32.8 days
3 | Apomab 7.3: anti-DR5 IgG: heavy chain TH7 (G33A, N53Q, L102Y) + light chain TL3 (Q24S, K51A, R91A); SEQ ID NOS: 18 and 20 | effective when administered alone | 53.0 | 355 | 193 | 776 mm^3 | One | 2.0 | 38 | 7.1 | significant anticancer activity | – | dose-response efficacy (H2122 xenograft; 1, 3 and 10 mg/kg single IV dose, FIG. 32): efficacious in all doses tested; mice with complete response (CR) (H2122 xenograft; 6 mice/group, without any reversal during the 70-day treatment period): All six; anticancer activity (BxPC3 xenograft): far superior to the efficacy of gemcitabine; 61-day survivors ([3]; ten mice per group): six; PR responses ([3]; ten mice per group): three; transient CR response ([3]; ten mice per group): one; regression responses ([4]; mouse, in vivo): No regression responses were documented; reversal of efficacy during test period ([5]; 1 mg/kg and 3 mg/kg doses, 20-day test period, FIG. 23): does not show any reversal during the 20-day test period; reduction of tumor volume ([5]; 1 mg/kg and 3 mg/kg doses, FIG. 23): effective in reducing tumor volume; anticancer activity compared with Apomabs 23.3 and 25.3 ([5]; FIG. 24): far exceeded the activity of Apomabs 23.3 and 25.3; reduction of (mean) tumor volume ([5]; single intraperitoneal dose 3 or 10 mg/kg, FIGS. 21 and 22, efficacy essentially the same as 16E2 version 1): highly efficient in reducing tumor volume
4 | Apomab 18.3: Apomab version with heavy chain framework residues E LVQ K | – | – | – | – | – | – | – | – | – | – | None | –
5 | Apomab 25.3: Apomab version with heavy chain framework residues Q LVQ K | – | – | – | – | – | – | – | – | – | significant anticancer activity | – | –
6 | Apomab 27.3: Apomab version with heavy chain framework residues E VER K | – | – | – | – | – | – | – | – | – | – | none | –
